US7179825B2, “Retinoic acid mimetic anilides” (Janssen Pharmaceutica N.V., priority 1997, dated 2007)

Legend:
[1] = system: metabolism of retinoic acid in human breast cancer cells; test: Inhibition of retinoic acid (RA) metabolism (Example C.1); type: cell-based; conditions: MCF-7 human breast cancer cells, 3H-RA as substrate; concentration needed to reduce the amount of metabolites to 50% of the control
Excerpt: The property to delay the metabolism of retinoic acid can be evidenced in various in vitro and in vivo experiments. A particular in vitro procedure is described in example C.1 and tests the inhibitory activity of the compounds of formula (I) on the metabolism of retinoic acid in human breast cancer cells. The compounds of the present invention were also effective in suppressing induced vaginal keratinization effects in ovariectomized rats as is described in example C.2.
Inhibition of Retinoic Acid (RA) Metabolism
MCF-7 human breast cancer cells were grown as stock cultures according to art-known protocols. One day before the experiment, RA is added to the stock cultures to stimulate RA-metabolism. At the start of the experiment, cell suspensions were incubated in a tissue culture medium containing ^3H-RA as the substrate. Different concentrations of the test compound (dissolved in 1% DMSO) were added to the incubation mixtures, and at the end of the incubation, the unmetabolized RA is separated from its polar metabolites. The fraction containing the polar ^3H-labelled metabolites was collected and counted in a scintillation counter. For each experiment, a control and a blank incubation were run in parallel. Table 22 list the IC50 value (defined as the concentration in M needed to reduce the amount of metabolites to 50% of the control).

Ovariectomized rats = test: Vaginal keratinization test on ovariectomized rats (Example C.2); type: in vivo; conditions: estradiol undecylate induced keratinization, per os once daily on days 1-3, active dose = 50% of rats show complete suppression
Method in brief: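 Ovariectomized rats given s.c. estradiol undecylate (100 μg per 100 g body weight in sesame oil), then oral compound once daily on days 1-3 (vehicle PEG 200). Vaginas assessed histologically one day after last dose; lowest active dose (mg/kg) is the dose giving complete keratinization suppression in 50% of rats.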

CCC(CC)C(c1ccc(NC(=O)Cc2ccc3c(c2)OCCO3)cc1)n1ccnc1 (racemic) [Compound 36]
IC50 [1]: 1430 pM
LAD (lowest active dose) (Ovariectomized rats): 5.00 mg/kg

CCC(CC)C(c1ccc(NC(=O)COc2ccccc2OC)cc1)n1ccnc1 (racemic) [Compound 37]
IC50 [1]: 1000 pM
LAD (lowest active dose) (Ovariectomized rats): 5.00 mg/kg

CCC(CC)C(c1ccc(NC(=O)Cc2ccc3c(c2)C(C)(C)CCC3(C)C)cc1)n1ccnc1 (racemic) [Compound 38]
IC50 [1]: 1040 pM
LAD (lowest active dose) (Ovariectomized rats): 5.00 mg/kg

CCOc1ccc(CCC(=O)Nc2ccc(C(C(CC)CC)n3ccnc3)cc2)cc1 (racemic) [Compound 39]
IC50 [1]: 104 pM
LAD (lowest active dose) (Ovariectomized rats): 0.60 mg/kg

CCC(CC)C(c1ccc(NC(=O)c2ccc(OC)nc2)cc1)n1ccnc1 (racemic) [Compound 45]
IC50 [1]: 172 pM
LAD (lowest active dose) (Ovariectomized rats): 2.50 mg/kg

CCC(CC)C(c1ccc(NC(=O)C2CCN(C(=O)c3ccccc3)CC2)cc1)n1ccnc1 (racemic) [Compound 46]
IC50 [1]: 1950 pM
LAD (lowest active dose) (Ovariectomized rats): >2.50 mg/kg

CCC(CC)C(c1ccc(NC(=O)CN2CCOCC2)cc1)n1ccnc1 (racemic) [Compound 47]
IC50 [1]: 1330 pM
LAD (lowest active dose) (Ovariectomized rats): 2.50 mg/kg

CCOc1ccc(CCCC(=O)Nc2ccc(C(C(CC)CC)n3ccnc3)cc2)cc1 (racemic) [Compound 48]
IC50 [1]: 569 pM
LAD (lowest active dose) (Ovariectomized rats): 2.50 mg/kg

CCC(CC)C(c1ccc(NC(=O)COc2ccccc2O)cc1)n1ccnc1 (racemic) [Compound 49]
IC50 [1]: 433 pM
LAD (lowest active dose) (Ovariectomized rats): 2.50 mg/kg

CCC(CC)C(c1ccc(NC(=O)CCCc2ccc(OC)c(OC)c2)cc1)n1ccnc1 (racemic) [Compound 52]
IC50 [1]: 907 pM
LAD (lowest active dose) (Ovariectomized rats): 2.50 mg/kg

CCC(CC)C(c1ccc(NC(=O)C2CCN(C(=O)OC(C)(C)C)CC2)cc1)n1ccnc1 (racemic) [Compound 53]
IC50 [1]: 2120 pM
LAD (lowest active dose) (Ovariectomized rats): >2.50 mg/kg

CCC(CC)C(c1ccc(NC(=O)Cc2ccc3nc(N)sc3c2)cc1)n1ccnc1 (racemic) [Compound 58]
IC50 [1]: < 10 pM
LAD (lowest active dose) (Ovariectomized rats): 5.00 mg/kg

CCC(CC)C(c1ccc(NC(=O)Nc2nc3ccccc3s2)cc1)n1cncn1 (racemic) [Compound 63]
IC50 [1]: 6700 pM
LAD (lowest active dose) (Ovariectomized rats): >5.00 mg/kg

CCC(CC)C(c1ccc(NC(=O)Nc2nc3ccccc3s2)cc1)n1ccnc1 (racemic) [Compound 64]
IC50 [1]: 6600 pM
LAD (lowest active dose) (Ovariectomized rats): >5.00 mg/kg

CCC(CC)C(c1ccc(NC(=O)Cc2ccc(C)cc2)cc1)n1cncn1 (racemic) [Compound 65]
IC50 [1]: 379 pM
LAD (lowest active dose) (Ovariectomized rats): 5.00 mg/kg

CCC(CC)C(c1ccc(NC(=O)Cc2ccc(Cl)cc2)cc1)n1cncn1 (racemic) [Compound 66]
IC50 [1]: 356 pM
LAD (lowest active dose) (Ovariectomized rats): 2.50 mg/kg

CCC(CC)C(c1ccc(NC(=O)Cc2cccc(O)c2)cc1)n1cncn1 (racemic) [Compound 67]
IC50 [1]: 334 pM
LAD (lowest active dose) (Ovariectomized rats): 2.50 mg/kg

CCC(CC)C(c1ccc(NC(=O)Cc2ccc(F)cc2)cc1)n1cncn1 (racemic) [Compound 68]
IC50 [1]: 1720 pM
LAD (lowest active dose) (Ovariectomized rats): 5.00 mg/kg

CCC(CC)C(c1ccc(NC(=O)Cc2ccc(O)cc2)cc1)n1cncn1 (racemic) [Compound 69]
IC50 [1]: 250 pM
LAD (lowest active dose) (Ovariectomized rats): 2.50 mg/kg

CCC(CC)C(c1ccc(NC(=O)Cc2cccc(OC)c2)cc1)n1cncn1 (racemic) [Compound 70]
IC50 [1]: 295 pM
LAD (lowest active dose) (Ovariectomized rats): 5.00 mg/kg

CCOc1ccc(CC(=O)Nc2ccc(C(C(CC)CC)n3cncn3)cc2)cc1 (racemic) [Compound 71]
IC50 [1]: 262 pM
LAD (lowest active dose) (Ovariectomized rats): >5.00 mg/kg

CCC(CC)C(c1ccc(NC(=O)Cc2ccc(O)c(OC)c2)cc1)n1cncn1 (racemic) [Compound 72]
IC50 [1]: 1660 pM
LAD (lowest active dose) (Ovariectomized rats): 2.50 mg/kg

CCC(CC)C(c1ccc(NC(=O)Cc2ccc(OC)c(OC)c2)cc1)n1cncn1 (racemic) [Compound 73]
IC50 [1]: 463 pM
LAD (lowest active dose) (Ovariectomized rats): >2.50 mg/kg

CCOc1ccc(CC(=O)Nc2ccc(C(C(CC)CC)n3cncn3)cc2)cc1Cl (racemic) [Compound 75]
IC50 [1]: 417 pM
LAD (lowest active dose) (Ovariectomized rats): 2.50 mg/kg

CCOc1ccc(CC(=O)Nc2ccc(C(C(CC)CC)n3cncn3)cc2)cc1C (racemic) [Compound 76]
IC50 [1]: 588 pM
LAD (lowest active dose) (Ovariectomized rats): >2.50 mg/kg

CCC(CC)C(c1ccc(NC(=O)Cc2ccc(C)c(C)c2)cc1)n1cncn1 (racemic) [Compound 77]
IC50 [1]: 332 pM
LAD (lowest active dose) (Ovariectomized rats): 2.50 mg/kg

CCC(CC)C(c1ccc(NC(=O)Cc2ccc(OC)c(C)c2)cc1)n1cncn1 (racemic) [Compound 78]
IC50 [1]: 227 pM
LAD (lowest active dose) (Ovariectomized rats): 1.25 mg/kg

CCC(CC)C(c1ccc(NC(=O)Cc2ccc(O)c(Cl)c2)cc1)n1cncn1 (racemic) [Compound 79]
IC50 [1]: 34.2 pM
LAD (lowest active dose) (Ovariectomized rats): 2.50 mg/kg

CCC(CC)C(c1ccc(NC(=O)Cc2cc(OC)c(OC)c(OC)c2)cc1)n1cncn1 (racemic) [Compound 80]
IC50 [1]: 48.3 pM
LAD (lowest active dose) (Ovariectomized rats): >2.50 mg/kg

CCC(CC)C(c1ccc(NC(=O)Cc2cc(C)c(C)c(C)c2)cc1)n1cncn1 (racemic) [Compound 81]
IC50 [1]: 231 pM
LAD (lowest active dose) (Ovariectomized rats): 2.50 mg/kg

CCOc1ccc(CC(=O)Nc2ccc(C(C(CC)CC)n3cncn3)cc2)cc1OCC (racemic) [Compound 82]
IC50 [1]: 1160 pM
LAD (lowest active dose) (Ovariectomized rats): 2.50 mg/kg

CCC(CC)C(c1ccc(NC(=O)Cc2ccc(Cl)c(OC)c2)cc1)n1cncn1 (racemic) [Compound 83]
IC50 [1]: 162 pM
LAD (lowest active dose) (Ovariectomized rats): >2.50 mg/kg

CCC(CC)C(c1ccc(NC(=O)Cc2ccc(C)c(OC)c2)cc1)n1cncn1 (racemic) [Compound 84]
IC50 [1]: 1740 pM
LAD (lowest active dose) (Ovariectomized rats): >2.50 mg/kg

CCC(CC)C(c1ccc(NC(=O)Cc2ccc(Cl)cc2)cc1)n1ccnc1 (racemic) [Compound 87]
IC50 [1]: 280 pM
LAD (lowest active dose) (Ovariectomized rats): 1.25 mg/kg

CCC(CC)C(c1ccc(NC(=O)Cc2ccc(F)cc2)cc1)n1ccnc1 (racemic) [Compound 88]
IC50 [1]: 148 pM
LAD (lowest active dose) (Ovariectomized rats): 2.50 mg/kg

CCC(CC)C(c1ccc(NC(=O)Cc2ccccc2OC)cc1)n1ccnc1 (racemic) [Compound 89]
IC50 [1]: 131 pM
LAD (lowest active dose) (Ovariectomized rats): 2.50 mg/kg

CCC(CC)C(c1ccc(NC(=O)Cc2cccc(OC)c2)cc1)n1ccnc1 (racemic) [Compound 90]
IC50 [1]: 2360 pM
LAD (lowest active dose) (Ovariectomized rats): 2.50 mg/kg

CCC(CC)C(c1ccc(NC(=O)Cc2ccc(OC)c(OC)c2)cc1)n1ccnc1 (racemic) [Compound 91]
IC50 [1]: 935 pM
LAD (lowest active dose) (Ovariectomized rats): 2.50 mg/kg

CCC(CC)C(c1ccc(NC(=O)Cc2ccc(OC(C)C)cc2)cc1)n1ccnc1 (racemic) [Compound 92]
IC50 [1]: 2210 pM
LAD (lowest active dose) (Ovariectomized rats): 5.00 mg/kg

CCCOc1ccc(CC(=O)Nc2ccc(C(C(CC)CC)n3ccnc3)cc2)cc1 (racemic) [Compound 93]
IC50 [1]: 1590 pM
LAD (lowest active dose) (Ovariectomized rats): 2.50 mg/kg

CCC(CC)C(c1ccc(NC(=O)Cc2ccc(C)cc2)cc1)n1ccnc1 (racemic) [Compound 94]
IC50 [1]: 1060 pM
LAD (lowest active dose) (Ovariectomized rats): 5.00 mg/kg

CCOc1ccc(CC(=O)Nc2ccc(C(C(CC)CC)n3ccnc3)cc2)cc1 (racemic) [Compound 95]
IC50 [1]: 1480 pM
LAD (lowest active dose) (Ovariectomized rats): 5.00 mg/kg
